Literature values, collected in patent US20080124279A1, “Colonic delivery using Zn/pectin beads with a Eudragit coating” (priority 2006, published 2008).

Tested on: FEZ-1
Conditions: not given

SMILES	Kcat [s⁻¹]	Km [µM]
C[C@@H](O)[C@H]1C(=O)N2C(C(=O)[O-])=C(SC3Cn4cnc[n+]4C3)[C@H](C)[C@H]12 (stereo partly drawn) [Biapenem]	70	> 1000
O=C(Cc1cccs1)N[C@@H]1C(=O)N2C(C(=O)O)=C(/C=C/c3ccc([N+](=O)[O-])cc3[N+](=O)[O-])CS[C@H]12 [Nitrocefin]	90	100
CO[C@@]1(NC(=O)C(C(=O)O)c2ccc(O)cc2)C(=O)N2C(C(=O)O)=C(CSc3nnnn3C)CO[C@@H]21 (stereo partly drawn) [Moxalactam]	3	18
CC1(C)S[C@@H]2[C@H](NC(=O)Cc3ccccc3)C(=O)N2[C@H]1C(=O)O [Benzylpenicillin]	70	590
CC1(C)S[C@@H]2[C@H](NC(=O)[C@H](N)c3ccccc3)C(=O)N2[C@H]1C(=O)O [Ampicillin]	>5.5	> 5000
C[C@]1(Cn2ccnn2)[C@H](C(=O)O)N2C(=O)C[C@H]2S1(=O)=O [Tazobactam]	40	700
CO/N=C(\C(=O)N[C@@H]1C(=O)N2C(C(=O)O)=C(COC(C)=O)CS[C@H]12)c1csc(N)n1 [Cefotaxim]	165	70
O=C(Cc1cccs1)N[C@@H]1C(=O)N2C(C(=O)[O-])=C(C[n+]3ccccc3)CS[C@H]12 [Cephaloridin]	16	1000
CCN1CCN(C(=O)N[C@@H](C(=O)N[C@@H]2C(=O)N3[C@@H]2SC(C)(C)[C@@H]3C(=O)O)c2ccccc2)C(=O)C1=O [Pipericillin]	50	4200
CO/N=C(\C(=O)N[C@@H]1C(=O)N2C(C(=O)[O-])=C(C[N+]3(C)CCCC3)CS[C@H]12)c1csc(N)n1 [Cefepim]	>6	> 1000
O=C(O)[C@H]1/C(=C/CO)O[C@@H]2CC(=O)N21 [Clavulanic Acid]	<0.01	> 1000
CC1(C)S[C@@H]2[C@H](NC(=O)[C@H](C(=O)O)c3ccsc3)C(=O)N2[C@H]1C(=O)O [Ticarcillin]	>65	> 5000
CC1(C)S[C@@H]2[C@H](NC(=O)C(C(=O)O)c3ccccc3)C(=O)N2[C@H]1C(=O)O (stereo partly drawn) [Cabenicillin]	35	1600

Molecular target: L-1(wt) (Stenotrophomonas maltophilia, UniProt P52700)
Sequence (P52700 34-290): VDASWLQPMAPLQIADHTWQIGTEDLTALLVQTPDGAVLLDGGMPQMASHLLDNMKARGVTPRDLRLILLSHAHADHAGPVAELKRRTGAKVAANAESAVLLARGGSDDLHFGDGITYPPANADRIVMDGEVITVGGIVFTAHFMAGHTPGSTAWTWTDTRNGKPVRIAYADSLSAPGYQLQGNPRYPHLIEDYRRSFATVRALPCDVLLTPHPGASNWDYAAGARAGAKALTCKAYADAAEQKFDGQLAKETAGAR
Conditions: not given

SMILES	Kcat [s⁻¹]	Km [µM]
C[C@@H](O)[C@H]1C(=O)N2C(C(=O)[O-])=C(SC3Cn4cnc[n+]4C3)[C@H](C)[C@H]12 (stereo partly drawn) [Biapenem]	134	32
O=C(Cc1cccs1)N[C@@H]1C(=O)N2C(C(=O)O)=C(/C=C/c3ccc([N+](=O)[O-])cc3[N+](=O)[O-])CS[C@H]12 [Nitrocefin]	41	4
CC1(C)S[C@@H]2[C@H](NC(=O)Cc3ccccc3)C(=O)N2[C@H]1C(=O)O [Benzylpenicillin]	600	38
CC1(C)S[C@@H]2[C@H](NC(=O)[C@H](N)c3ccccc3)C(=O)N2[C@H]1C(=O)O [Ampicillin]	520	55
C[C@@H](O)[C@H]1C(=O)N2C(C(=O)O)=C(S[C@@H]3CN[C@H](C(=O)N(C)C)C3)[C@H](C)[C@H]12 [Meropenem]	157	15
CC(=O)OCC1=C(C(=O)O)N2C(=O)[C@@H](NC(=O)Cc3cccs3)[C@H]2SC1 [Cephalothin]	82	8.9
CO/N=C(\C(=O)N[C@@H]1C(=O)N2C(C(=O)O)=C(COC(C)=O)CS[C@H]12)c1csc(N)n1 [Cefotaxim]	270	10
C[C@@H](O)[C@H]1C(=O)N2C(C(=O)O)=C(SCCN=CN)C[C@H]12 [Imipenem]		57
O=C(O)[C@H]1/C(=C/CO)O[C@@H]2CC(=O)N21 [Clavulanic Acid]	11	22
CO[C@@]1(NC(=O)Cc2cccs2)C(=O)N2C(C(=O)O)=C(COC(N)=O)CS[C@@H]21 [Cefoxitin]	1	3

Molecular target: IMP-1 (Serratia marcescens, UniProt P52699)
Sequence (P52699 19-246 limits assumed): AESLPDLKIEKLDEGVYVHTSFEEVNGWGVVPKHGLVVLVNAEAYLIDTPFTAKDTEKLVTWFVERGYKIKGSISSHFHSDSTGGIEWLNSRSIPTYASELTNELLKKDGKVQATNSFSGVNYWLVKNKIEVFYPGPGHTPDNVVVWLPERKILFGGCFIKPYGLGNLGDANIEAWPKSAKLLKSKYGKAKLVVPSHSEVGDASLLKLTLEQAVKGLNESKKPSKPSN
Conditions: not given

SMILES	Kcat [s⁻¹]	Km [µM]
C[C@@H](O)[C@H]1C(=O)N2C(C(=O)[O-])=C(SC3Cn4cnc[n+]4C3)[C@H](C)[C@H]12 (stereo partly drawn) [Biapenem]	160	28
O=C(Cc1cccs1)N[C@@H]1C(=O)N2C(C(=O)O)=C(/C=C/c3ccc([N+](=O)[O-])cc3[N+](=O)[O-])CS[C@H]12 [Nitrocefin]	63	
CC1(C)S[C@@H]2[C@H](NC(=O)Cc3ccccc3)C(=O)N2[C@H]1C(=O)O [Benzylpenicillin]	320	520
CC1(C)S[C@@H]2[C@H](NC(=O)[C@H](N)c3ccccc3)C(=O)N2[C@H]1C(=O)O [Ampicillin]	950	200
CC(=O)OCC1=C(C(=O)O)N2C(=O)[C@@H](NC(=O)Cc3cccs3)[C@H]2SC1 [Cephalothin]	48	
CC(C)(O/N=C(\C(=O)N[C@@H]1C(=O)N2C(C(=O)[O-])=C(C[n+]3ccccc3)CS[C@H]12)c1csc(N)n1)C(=O)O [Ceftazidin]	8	
CO/N=C(\C(=O)N[C@@H]1C(=O)N2C(C(=O)O)=C(COC(C)=O)CS[C@H]12)c1csc(N)n1 [Cefotaxim]	1.3	
O=C(Cc1cccs1)N[C@@H]1C(=O)N2C(C(=O)[O-])=C(C[n+]3ccccc3)CS[C@H]12 [Cephaloridin]	53	
C[C@@H](O)[C@H]1C(=O)N2C(C(=O)O)=C(SCCN=CN)C[C@H]12 [Imipenem]		39
CO/N=C(\C(=O)N[C@@H]1C(=O)N2C(C(=O)[O-])=C(C[n+]3cccc4c3CCC4)CS[C@H]12)c1csc(N)n1 [Cefpirom]	9	
CO/N=C(\C(=O)N[C@@H]1C(=O)N2C(C(=O)[O-])=C(C[N+]3(C)CCCC3)CS[C@H]12)c1csc(N)n1 [Cefepim]	7	
C[C@H]1[C@H](NC(=O)/C(=N\OC(C)(C)C(=O)O)c2csc(N)n2)C(=O)N1S(=O)(=O)O [Aztreonam]	>0.01	> 1000
CC1(C)S[C@@H]2[C@H](NC(=O)[C@H](C(=O)O)c3ccsc3)C(=O)N2[C@H]1C(=O)O [Ticarcillin]	1.1	740
NC(=O)OC[C@@H]1[C@H](NC(=O)/C(=N\OCC(=O)O)c2csc(N)n2)C(=O)N1S(=O)(=O)O [Carumonam]	>0.01	> 1000

Same assay, conditions: read-out: Km

SMILES	Km [µM]
CC(C)(O/N=C(\C(=O)N[C@@H]1C(=O)N2C(C(=O)[O-])=C(C[n+]3ccccc3)CS[C@H]12)c1csc(N)n1)C(=O)O [Ceftazidin]	44
CO/N=C(\C(=O)N[C@@H]1C(=O)N2C(C(=O)O)=C(COC(C)=O)CS[C@H]12)c1csc(N)n1 [Cefotaxim]	4
O=C(Cc1cccs1)N[C@@H]1C(=O)N2C(C(=O)[O-])=C(C[n+]3ccccc3)CS[C@H]12 [Cephaloridin]	22
CO/N=C(\C(=O)N[C@@H]1C(=O)N2C(C(=O)[O-])=C(C[n+]3cccc4c3CCC4)CS[C@H]12)c1csc(N)n1 [Cefpirom]	14
CO/N=C(\C(=O)N[C@@H]1C(=O)N2C(C(=O)[O-])=C(C[N+]3(C)CCCC3)CS[C@H]12)c1csc(N)n1 [Cefepim]	11
CO[C@@]1(NC(=O)C(C(=O)O)c2ccsc2)C(=O)N2[C@@H](C(=O)O)C(C)(C)S[C@@H]21 (stereo partly drawn) [Timocillin]	> 2000

Molecular target: VIM-2 (Escherichia coli, UniProt Q5U7L7)
Conditions: not given

SMILES	Kcat [s⁻¹]	Km [µM]
C[C@@H](O)[C@H]1C(=O)N2C(C(=O)[O-])=C(SC3Cn4cnc[n+]4C3)[C@H](C)[C@H]12 (stereo partly drawn) [Biapenem]	8.5	15
CC1(C)[C@H](C(=O)O)N2C(=O)C[C@H]2S1(=O)=O [Sulbactam]	23	
O=C(Cc1cccs1)N[C@@H]1C(=O)N2C(C(=O)O)=C(/C=C/c3ccc([N+](=O)[O-])cc3[N+](=O)[O-])CS[C@H]12 [Nitrocefin]	770	18
CO[C@@]1(NC(=O)C(C(=O)O)c2ccc(O)cc2)C(=O)N2C(C(=O)O)=C(CSc3nnnn3C)CO[C@@H]21 (stereo partly drawn) [Moxalactam]	90	55
CC1(C)S[C@@H]2[C@H](NC(=O)Cc3ccccc3)C(=O)N2[C@H]1C(=O)O [Benzylpenicillin]	56	49
CO/N=C(\C(=O)N[C@@H]1C(=O)N2C(C(=O)O)=C(COC(N)=O)CS[C@H]12)c1ccco1 [Cefuroxin]	8	
CC1(C)S[C@@H]2[C@H](NC(=O)[C@H](N)c3ccccc3)C(=O)N2[C@H]1C(=O)O [Ampicillin]		90
C[C@@H](O)[C@H]1C(=O)N2C(C(=O)O)=C(S[C@@H]3CN[C@H](C(=O)N(C)C)C3)[C@H](C)[C@H]12 [Meropenem]	5	2
CC(=O)OCC1=C(C(=O)O)N2C(=O)[C@@H](NC(=O)Cc3cccs3)[C@H]2SC1 [Cephalothin]	130	11
CC(C)(O/N=C(\C(=O)N[C@@H]1C(=O)N2C(C(=O)[O-])=C(C[n+]3ccccc3)CS[C@H]12)c1csc(N)n1)C(=O)O [Ceftazidin]	3.6	
C[C@]1(Cn2ccnn2)[C@H](C(=O)O)N2C(=O)C[C@H]2S1(=O)=O [Tazobactam]	28	875
CO/N=C(\C(=O)N[C@@H]1C(=O)N2C(C(=O)O)=C(COC(C)=O)CS[C@H]12)c1csc(N)n1 [Cefotaxim]	70	
O=C(Cc1cccs1)N[C@@H]1C(=O)N2C(C(=O)[O-])=C(C[n+]3ccccc3)CS[C@H]12 [Cephaloridin]	140	
C[C@@H](O)[C@H]1C(=O)N2C(C(=O)O)=C(SCCN=CN)C[C@H]12 [Imipenem]		9
CC1(C)S[C@@H]2[C@H](NC(=O)[C@H](NC(=O)N3CCN(S(C)(=O)=O)C3=O)c3ccccc3)C(=O)N2[C@H]1C(=O)O [Mezlocillin]	200	125
CO/N=C(\C(=O)N[C@@H]1C(=O)N2C(C(=O)[O-])=C(C[n+]3cccc4c3CCC4)CS[C@H]12)c1csc(N)n1 [Cefpirom]	180	
CC1(C)S[C@@H]2[C@H](NC(=O)[C@H](NC(=O)N3CCNC3=O)c3ccccc3)C(=O)N2[C@H]1C(=O)O [Azlocillin]	200	200
CCN1CCN(C(=O)N[C@@H](C(=O)N[C@@H]2C(=O)N3[C@@H]2SC(C)(C)[C@@H]3C(=O)O)c2ccccc2)C(=O)C1=O [Pipericillin]	300	
CO/N=C(\C(=O)N[C@@H]1C(=O)N2C(C(=O)[O-])=C(C[N+]3(C)CCCC3)CS[C@H]12)c1csc(N)n1 [Cefepim]	>40	
C[C@H]1[C@H](NC(=O)/C(=N\OC(C)(C)C(=O)O)c2csc(N)n2)C(=O)N1S(=O)(=O)O [Aztreonam]	<0.01	> 1000
CC1(C)S[C@@H]2[C@H](NC(=O)[C@H](C(=O)O)c3ccsc3)C(=O)N2[C@H]1C(=O)O [Ticarcillin]	180	125
CO[C@@]1(NC(=O)Cc2cccs2)C(=O)N2C(C(=O)O)=C(COC(N)=O)CS[C@@H]21 [Cefoxitin]	15	13
CC1(C)S[C@@H]2[C@H](NC(=O)C(C(=O)O)c3ccccc3)C(=O)N2[C@H]1C(=O)O (stereo partly drawn) [Cabenicillin]	185	
CO[C@@]1(NC(=O)C(C(=O)O)c2ccsc2)C(=O)N2[C@@H](C(=O)O)C(C)(C)S[C@@H]21 (stereo partly drawn) [Timocillin]	7.7	

Same assay, conditions: read-out: Km

SMILES	Km [µM]
CC1(C)[C@H](C(=O)O)N2C(=O)C[C@H]2S1(=O)=O [Sulbactam]	320
CO/N=C(\C(=O)N[C@@H]1C(=O)N2C(C(=O)O)=C(COC(N)=O)CS[C@H]12)c1ccco1 [Cefuroxin]	20
CC(C)(O/N=C(\C(=O)N[C@@H]1C(=O)N2C(C(=O)[O-])=C(C[n+]3ccccc3)CS[C@H]12)c1csc(N)n1)C(=O)O [Ceftazidin]	72
CO/N=C(\C(=O)N[C@@H]1C(=O)N2C(C(=O)O)=C(COC(C)=O)CS[C@H]12)c1csc(N)n1 [Cefotaxim]	12
O=C(Cc1cccs1)N[C@@H]1C(=O)N2C(C(=O)[O-])=C(C[n+]3ccccc3)CS[C@H]12 [Cephaloridin]	50
CO/N=C(\C(=O)N[C@@H]1C(=O)N2C(C(=O)[O-])=C(C[n+]3cccc4c3CCC4)CS[C@H]12)c1csc(N)n1 [Cefpirom]	180
CCN1CCN(C(=O)N[C@@H](C(=O)N[C@@H]2C(=O)N3[C@@H]2SC(C)(C)[C@@H]3C(=O)O)c2ccccc2)C(=O)C1=O [Pipericillin]	125
CO/N=C(\C(=O)N[C@@H]1C(=O)N2C(C(=O)[O-])=C(C[N+]3(C)CCCC3)CS[C@H]12)c1csc(N)n1 [Cefepim]	> 400
CC1(C)S[C@@H]2[C@H](NC(=O)C(C(=O)O)c3ccccc3)C(=O)N2[C@H]1C(=O)O (stereo partly drawn) [Cabenicillin]	205
CO[C@@]1(NC(=O)C(C(=O)O)c2ccsc2)C(=O)N2[C@@H](C(=O)O)C(C)(C)S[C@@H]21 (stereo partly drawn) [Timocillin]	390
